Data reported in patent US11135316B2, “Imaging and treatment of pathophysiologic conditions by Cerenkov radiation” (priority 2014, dated 2021).

How the values were obtained:
HT1080 cells [1] = assay: Lipid peroxidation assay (BODIPY 581/591 C11); type: cell-based
Protocol: BODIPY® 581i591 C11 reagent (Life Technologies Inc.) was used to quantitatively determine the degree of lipid peroxidation. It is a ratiometric fluorescence technique that relies on oxidation of lipids to shift fluorescence emission peak from 590 nm to 510 nm. […] All the compounds were incubated for 6 h at 37° C. Finally, the BODIPY-based dye (10 μM) was added and incubated for 30 min at 37° C. After washing the cells with PBS three times, the plate was analysed using a Synergy HT multimode plate reader (BioTek Instruments Inc., Winooski, USA) with excitation/emission of 581/591 nm for the reduced dye and at 488/510 nm for the oxidized dye. The ratio of the fluorescence intensities at 590/510 nm was plotted to derive the ratio of fluorescence change.

HT1080 tumor = conditions: mouse, in vivo
4T1 and HT1080 tumor = conditions: mouse, in vivo
Excerpt: The studies were commenced when tumor volume reached 500 mm^3. […] The animals were euthanized subsequently and major organs dissected and imaged in the same channel. Image J was used to quantitate fluorescence intensity by drawing regions of interest encompassing entire organs.

HT1080 cell line = conditions: expected result of planned assay
[2] = test system: mitochondrial membrane potential; assay: Mitochondrial membrane potential assay (Mitotracker Green); type: cell-based; conditions: coincubated with FDG
Protocol: For measuring mitochondrial membrane potential, Mitotracker Green (Life Technologies Inc.) was used according to manufacturer's instructions. Staurosporine (2 μM; Sigma Aldrich Co.) was used as positive control. Fluorescence readout was performed using a plate reader using excitation/emission wavelengths of 490/516 nm.

cells = conditions: literature; cited from earlier work
HT1080 tumors = type: in vivo, mice; conditions: i.v. with FDG, monitored 15 days
Excerpt: Tumor volume was registered every alternate day for 15 days.

HT1080 cells [3] = test system: HT1080 cells
Protocol: FIG. 7A and FIG. 7B depict the effect of photosensitive particles and radionuclides on cell viability. […] The control group was considered to be 100% viable. […] HT1080 cells were used and the values are means±s.e.m. (experiments for each group were run in triplicates).
The MTS (3-(4,5-di methylthiazol-2-yl)-5-(3-carboxymethoxyphenyl)-2-(4-sulfophenyl)-2H-tetrazolium) assay, a colorimetric assay for assessing cell viability was performed using the CellTiter 96® AQueous Non-Radioactive Cell Proliferation Assay kit (Promega Co.) according to the manufacturer's instructions.

Compound: Cc1c(C)c2c(c(C)c1O)CCC(C)(C(=O)O)O2 (centres unmarked) [Trolox, reference compound]
- effect of peroxyl radical scavenger on lipid peroxidation (HT1080 cells [1]; added to Tc and FDG): adequately inhibited this process

Compound: Tf: transferrin, tumor targeting protein; Alexa 680 labeled for biodistribution
- tumor to muscle ratio (HT1080 tumor): 5.3
- tumor:muscle ratio (4T1 and HT1080 tumor): 5.5

Compound: Titanocene dichloride [Tc]
- LD50 Tc concentration, fold lower with CR than without FDG (HT1080 cell line): at least 4 fold
- mitochondrial membrane potential [2]: significant decrease in mitochondrial membrane potential
- concentration known to induce apoptosis in cells (cells): ≥ 12500 ng/mL
- tumor volume, fold smaller compared to controls (HT1080 tumors): four-fold
- peroxidation of cellular lipids (HT1080 cells [1]; with FDG): induced significant peroxidation and degradation of cellular lipids
- concentration that did not induce apoptosis (HT1080 cells [3]): < 10000 ng/mL

Compound: titanium dioxide [TiO2]
- concentration at which TiO2 particles did not induce apoptosis (HT1080 cells [3]): < 0.004 ng/mL
- concentration that did not induce apoptosis (HT1080 cells [3]): < 4000 ng/mL
